Data as given in patent EP0061001A1, “Antiallergic agent comprising derivatives of adenosine” (Yamasa Shoyu Kabushiki Kaisha, priority 1981, dated 1982).
Where two headings read alike, the source gives them in different places.

Tests used:
[1] = tested on: Passive cutaneous anaphylaxis (PCA); experiment: Passive cutaneous anaphylaxis (PCA) suppressing effect, method of J. Goose et al; format: in vivo, rats (Sprague Dawley-strain); settings: iv, 40 min, rat PCA, compound given intravenously with antigen and Evans blue
Protocol: According to the method of J. Goose et al (see Immunology 16, 749, 1969), PCA reaction was carried out in the following manner.
To male rats (Sprague Dawley-strain; hereinafter abbreviated as SD-strain), weighing 120 to 150 g, 10 mg/kg of ovalubumin was administered intramuscularly and 2 x 10^10 cells of Bodetalla pertussis vaccine intraperitoneally. After 10 to 12 days, each rat was bled and antiserum was separated.
To other rats (SD-strain, weighing 120 to 150 g) shaved at the back, under ether anesthetization, 0.1 ml of the above antiserum diluted 4-fold was injected intradermally for dermal sensitization. After 48 hours, 1 mg/kg of ovalubumin (antigen), 1 mg/kg of Evans blue (dye) and various N^6-ω-aminoalkyl adenosine compounds and DSCG or isotonic saline were challenged intravenously. After 40 minutes, the diameter of dye spots on the skin and the leak quantity of dye were measured to determine ED50 (50% effective amount) for each compound.
The leak quantity of dye was determined by extracting the dye from the skin peeled off with potassium hydroxide, removing proteins with acetoneafter neutralization with phosphoric acid, and thereafter measuring absorbance at 620 nm of the resultant extract, which step was then followed by calculation therefrom. The N^6-ω-aminoalkyl adenosine compounds provided for the tests are enumerated below: […]

Acute toxicity tests = settings: mouse, in vivo, ip; male mice, intraperitoneally, free form in isotonic saline solution or suspension; brackets = 95% confidence limit
Protocol: To ICR-JCL-strain mice (male, weighing 24 to 28 g), various N^6-w-aminoalkyl adenosine compound-s (each in free form) were administered as isotonic saline solutions or suspensions each in a dosage of 0.1 ml/10 g intraperitoneally for determination of LD50.

[2] = diameter of dye spots on the skin after 40 minutes, read-out: ED50 By diameter
[3] = leak quantity of dye after 40 minutes (absorbance at 620 nm), read-out: ED50 By dye quantity

SMILES	ED50 [1, 2]	ED50 [1, 3]	LD50 (Acute toxicity tests)
O=C(O)c1cc(=O)c2c(OCC(O)COc3cccc4oc(C(=O)O)cc(=O)c34)cccc2o1 [DSCG, disodium cromoglycate, reference compound]	3.3 mg/kg	3 mg/kg	–
NCCCNc1ncnc2c1ncn2[C@@H]1O[C@H](CO)[C@@H](O)[C@H]1O [compound 1, N^6-(3-amino-n-propyl)-Ado]	0.87 mg/kg	0.2 mg/kg	–
NCCCCCCNc1ncnc2c1ncn2[C@@H]1O[C@H](CO)[C@@H](O)[C@H]1O [compound 2, N^6-(6-amino-n-hexyl)-Ado]	0.15 mg/kg	0.06 mg/kg	–
NCCCCCCCNc1ncnc2c1ncn2[C@@H]1O[C@H](CO)[C@@H](O)[C@H]1O [compound 3, N^6-(7-amino-n-heptyl)-Ado]	0.058 mg/kg	0.06 mg/kg	145 mg/kg
NCCCCCCCCCNc1ncnc2c1ncn2[C@@H]1O[C@H](CO)[C@@H](O)[C@H]1O [compound 4, N^6-(9-amino-n-nonyl)-Ado]	0.084 mg/kg	0.084 mg/kg	175 mg/kg
NCCCNc1ncnc2c1ncn2[C@@H]1O[C@H](COP(=O)(O)O)[C@@H](O)[C@H]1O [compound 5, N^6-(3-amino-n-propyl)-5'-AMP]	0.46 mg/kg	0.31 mg/kg	–
NCCCCCCNc1ncnc2c1ncn2[C@@H]1O[C@H](COP(=O)(O)O)[C@@H](O)[C@H]1O [compound 6, N^6-(6-amino-n-hexyl)-5'-AMP]	0.51 mg/kg	0.32 mg/kg	–
NCCCCCCCCCNc1ncnc2c1ncn2[C@@H]1O[C@H](COP(=O)(O)O)[C@@H](O)[C@H]1O [compound 7, N^6-(9-amino-n-nonyl)-5'-AMP]	0.29 mg/kg	0.16 mg/kg	195 mg/kg
NCCCCNc1ncnc2c1ncn2[C@@H]1O[C@H](CO)[C@@H](OP(=O)(O)O)[C@H]1O [compound 8]	1.7 mg/kg	0.64 mg/kg	–
NCCCCCCNc1ncnc2c1ncn2[C@@H]1O[C@H](CO)[C@@H](OP(=O)(O)O)[C@H]1O [compound 9, N^6-(6-amino-n-hexyl)-3'-AMP]	1.9 mg/kg	0.7 mg/kg	–
NCCCCCCCCNc1ncnc2c1ncn2[C@@H]1O[C@H](CO)[C@@H](OP(=O)(O)O)[C@H]1O [compound 10, N^6-(8-amino-n-octyl)-3'-AMP]	1.5 mg/kg	0.7 mg/kg	220 mg/kg
NCCCCNc1ncnc2c1ncn2[C@@H]1O[C@@H]2COP(=O)(O)O[C@H]2[C@H]1O [compound 11, N^6-(4-amino-n-butyl)-cAMP]	15 mg/kg	9.4 mg/kg	–
NCCCCCCNc1ncnc2c1ncn2[C@@H]1O[C@@H]2COP(=O)(O)O[C@H]2[C@H]1O [compound 12, N^6-(6-amino-n-hexyl)-cAMP]	3.3 mg/kg	3.2 mg/kg	165 mg/kg
NCCCCCCCCNc1ncnc2c1ncn2[C@@H]1O[C@@H]2COP(=O)(O)O[C@H]2[C@H]1O [compound 13, N^6-(8-amino-n-octyl)-cAMP]	3.7 mg/kg	3.1 mg/kg	–
NCCCCCCCCCNc1ncnc2c1ncn2[C@@H]1O[C@@H]2COP(=O)(O)O[C@H]2[C@H]1O [compound 14, N^6-(9-amino-n-nonyl)-cAMP]	> 3.3 mg/kg	3.3 mg/kg	–
NCCCCCCCCCCNc1ncnc2c1ncn2[C@@H]1O[C@@H]2COP(=O)(O)O[C@H]2[C@H]1O [compound 15, N^6-(10-amino-n-decanyl)-cAMP]	8.2 mg/kg	6 mg/kg	–
